Source: patent US8686044B2, “Amide derivative, pest control agent containing the amide derivative, and use of the amide derivative” (Mitsui Chemicals Agro, Inc., priority 2008, dated 2014)
Read-outs that look alike come from different tables or passages of the source.

Experiments:
Format in all cases: in vivo
[1] = test system: Helicoverpa armigera; test: Pesticidal test against Helicoverpa armigera (cabbage leaf disk dip); details: foliar, 72 h, concentration 1 ppm, 2-stage larvae, examined after 3 days, 25° C., read-out: pesticidal rate
Experimental: Pesticidal Test against Helicoverpa armigera A cabbage leaf disk was immersed for 30 seconds in a chemical solution in which a test compound had been prepared at a predetermined concentration, and air-dried. The leaf disk was put into a 6-hole plastic cup having a filter paper laid on the bottom thereof, and 2-stage larvae of Helicoverpa armigera were released with one insect being released per hole. They were left to stand in a thermostatic chamber at 25° C., and the numbers of the living pests and the dead pests were examined after 3 days. The test was carried out with five larvae per group in two replicates. Further, the above compound (A) was used as a comparative compound.

[2] = test system: Plutella xylostella; test: Pesticidal test against Plutella xylostella (cabbage leaf dip); details: foliar, 144 h, 2-stage larvae, examined after 6 days, 25° C., read-out: pesticidal rate; for pest or weed control at 1 ppm: concentration 1 ppm; for pest or weed control at 10 ppm: concentration 10 ppm
In short: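 Second-stage larvae (5 per group, two replicates) were released onto air-dried cabbage leaf discs that had been immersed for 30 seconds in compound solution at a set concentration. Mortality was scored after 6 days at 25° C.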

[3] = test system: Spodoptera litura; test: Pesticidal test against Spodoptera litura (cabbage leaf dip); details: foliar, 144 h, 2-stage larvae, examined after 6 days, 25° C., read-out: pesticidal rate; for pest or weed control at 1 ppm: concentration 1 ppm
In short: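 Cabbage leaf pieces dipped 30 seconds in compound solution at a predetermined concentration and air-dried, then offered to second-stage larvae, five per group in two replicates. Held at 25° C. Living and dead larvae counted after 6 days.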

[4] = test system: Adoxophyes honmai; test: Pesticidal test against Adoxophyes honmai (artificial feed dip); details: 144 h, concentration 1 ppm, 2-stage larvae, examined after 6 days, 25° C., read-out: pesticidal rate
Experimental: Pesticidal Test against Adoxophyes honmai A thinly sliced artificial feed was immersed for 30 seconds in a chemical solution in which a test compound had been prepared at a predetermined concentration, and air-dried, and then put into a 7 cm polyethylene cup having a filter paper laid on the bottom thereof, and 2-stage larvae of Adoxophyes honmai were released. They were left to stand in a thermostatic chamber at 25° C., and the numbers of the living pests and the dead pests were examined after 6 days. The test was carried out with five larvae per group in two replicates. Further, the above compound (A) was used as a comparative compound.

[5] = test system: Laodelphax striatellus; test: Pesticidal test against Laodelphax striatellus (rice seedling spray); details: 144 h, read-out: pesticidal rate
In short: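 Rice seedlings sprayed with 2.5 ml acetone solution of compound at a predetermined concentration, air-dried, then infested with third-stage Laodelphax striatellus larvae in capped water-containing tubes at 25 °C. Living and dead insects counted after 6 days; ten larvae per group, two replicates.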

[6] = test system: Musca domestica; test: Pesticidal test against Musca domestica (petri dish dry film); details: 24 h, concentration 100 ppm, female adults, examined after 1 day, 25° C., read-out: pesticidal rate
Experimental: Pesticidal Test against Musca domestica
1 ml of an acetone solution in which a test compound had been prepared at a predetermined concentration was added dropwise to a petri dish having a diameter of 9 cm, and air-dried, and then the female adults of Musca domestica were released and the petri dish was capped. They were left to stand in a thermostatic chamber at 25° C., and the numbers of the living pests and the dead pests were examined after 1 day. The test was carried out with five larvae per group in two replicates.

[7] = concentration 100 ppm, 3-stage larvae, examined after 6 days, 25° C.

O=C(Nc1c(I)cc(C(F)(C(F)(F)F)C(F)(F)F)cc1C(F)(F)F)c1cccc(NC(=O)c2ccc(F)cc2Cl)c1 [6-449]
≥ 70%: pest or weed control at 1 ppm [1] | pest or weed control at 1 ppm [2] | pest or weed control at 1 ppm [3] | pest or weed control at 1 ppm [4]

N#Cc1cccc(C(=O)Nc2cccc(C(=O)Nc3c(Br)cc(C(F)(C(F)(F)F)C(F)(F)C(F)(F)F)cc3Br)c2F)c1 (stereo not shown) [6-1202]
≥ 70%: pest or weed control at 100 ppm [5, 7] | pest or weed control at 1 ppm [2] | pest or weed control at 1 ppm [3] | pest or weed control at 1 ppm [4]

O=C(Nc1cccc(C(=O)Nc2c(I)cc(C(F)(C(F)(F)F)C(F)(F)F)cc2I)c1F)c1cccc(F)c1 [6-1262]
≥ 70%: pest or weed control at 1 ppm [1] | pest or weed control at 100 ppm [5, 7] | pest or weed control at 1 ppm [2] | pest or weed control at 1 ppm [3] | pest or weed control at 1 ppm [4]

N#Cc1ccc(C(=O)Nc2cccc(C(=O)Nc3c(I)cc(C(F)(C(F)(F)F)C(F)(F)F)cc3I)c2F)cc1 [6-1281]
≥ 70%: pest or weed control at 1 ppm [1] | pest or weed control at 100 ppm [5, 7] | pest or weed control at 1 ppm [2] | pest or weed control at 1 ppm [3] | pest or weed control at 100 ppm [6]

O=C(Nc1c(I)cc(C(F)(C(F)(F)F)C(F)(F)C(F)(F)F)cc1I)c1cccc(NC(=O)c2c(F)cccc2F)c1F (stereo not shown) [6-1360]
≥ 70%: pest or weed control at 100 ppm [5, 7] | pest or weed control at 1 ppm [2] | pest or weed control at 1 ppm [3] | pest or weed control at 100 ppm [6]

O=C(Nc1cccc(C(=O)Nc2c(I)cc(C(F)(C(F)(F)F)C(F)(F)C(F)(F)F)cc2I)c1F)c1cccnc1Cl (stereo not shown) [6-1374]
≥ 70%: pest or weed control at 100 ppm [5, 7] | pest or weed control at 1 ppm [2] | pest or weed control at 1 ppm [3] | pest or weed control at 100 ppm [6]

O=C(Nc1cccc(C(=O)Nc2c(Br)cc(C(F)(C(F)(F)F)C(F)(F)C(F)(F)F)cc2C(F)(F)F)c1F)c1cccnc1Cl (stereo not shown) [6-1688]
≥ 70%: pest or weed control at 100 ppm [5, 7] | pest or weed control at 1 ppm [2] | pest or weed control at 1 ppm [3] | pest or weed control at 1 ppm [4]

O=C(Nc1cccc(C(=O)Nc2c(I)cc(C(F)(C(F)(F)F)C(F)(F)F)cc2C(F)(F)F)c1F)c1ccccc1Cl [6-1734]
≥ 70%: pest or weed control at 100 ppm [5, 7] | pest or weed control at 1 ppm [2] | pest or weed control at 1 ppm [3] | pest or weed control at 100 ppm [6]

O=C(Nc1cccc(C(=O)Nc2c(I)cc(C(F)(C(F)(F)F)C(F)(F)C(F)(F)F)cc2C(F)(F)F)c1F)c1ccccc1 (stereo not shown) [6-1808]
≥ 70%: pest or weed control at 1 ppm [1] | pest or weed control at 100 ppm [5, 7] | pest or weed control at 1 ppm [2] | pest or weed control at 1 ppm [3] | pest or weed control at 100 ppm [6]

O=C(Nc1cccc(C(=O)Nc2c(I)cc(C(F)(C(F)(F)F)C(F)(F)C(F)(F)F)cc2C(F)(F)F)c1F)c1cccc(F)c1 (stereo not shown) [6-1810]
≥ 70%: pest or weed control at 100 ppm [5, 7] | pest or weed control at 1 ppm [2] | pest or weed control at 1 ppm [3] | pest or weed control at 100 ppm [6]

CN(C(=O)c1ccccc1)c1cccc(C(=O)Nc2c(Br)cc(C(F)(C(F)(F)F)C(F)(F)C(F)(F)F)cc2C(F)(F)F)c1 (stereo not shown) [7-346]
≥ 70%: pest or weed control at 100 ppm [5, 7] | pest or weed control at 1 ppm [2] | pest or weed control at 1 ppm [3] | pest or weed control at 100 ppm [6]

CN(C(=O)c1c(F)cccc1F)c1cccc(C(=O)Nc2c(Br)cc(C(F)(C(F)(F)F)C(F)(F)C(F)(F)F)cc2C(F)(F)F)c1 (stereo not shown) [7-368]
≥ 70%: pest or weed control at 100 ppm [5, 7] | pest or weed control at 1 ppm [2] | pest or weed control at 1 ppm [3] | pest or weed control at 100 ppm [6]

CN(C(=O)c1cccc(C#N)c1)c1cccc(C(=O)Nc2c(Br)cc(C(F)(C(F)(F)F)C(F)(F)C(F)(F)F)cc2Br)c1F (stereo not shown) [7-1202]
≥ 70%: pest or weed control at 100 ppm [5, 7] | pest or weed control at 1 ppm [2] | pest or weed control at 1 ppm [3] | pest or weed control at 1 ppm [4]

CN(C(=O)c1cccc(F)c1)c1cccc(C(=O)Nc2c(I)cc(C(F)(C(F)(F)F)C(F)(F)C(F)(F)F)cc2I)c1F (stereo not shown) [7-1340]
≥ 70%: pest or weed control at 100 ppm [5, 7] | pest or weed control at 1 ppm [2] | pest or weed control at 1 ppm [3] | pest or weed control at 100 ppm [6]

CN(C(=O)c1c(F)cccc1F)c1cccc(C(=O)Nc2c(I)cc(C(F)(C(F)(F)F)C(F)(F)C(F)(F)F)cc2I)c1F (stereo not shown) [7-1360]
≥ 70%: pest or weed control at 100 ppm [5, 7] | pest or weed control at 1 ppm [2] | pest or weed control at 1 ppm [3] | pest or weed control at 100 ppm [6]

CN(C(=O)c1ccccc1)c1cccc(C(=O)Nc2c(Cl)cc(C(F)(C(F)(F)F)C(F)(F)F)cc2C(F)(F)F)c1F [7-1417]
≥ 70%: pest or weed control at 100 ppm [5, 7] | pest or weed control at 1 ppm [2] | pest or weed control at 1 ppm [3] | pest or weed control at 100 ppm [6]

CN(C(=O)c1ccc(C#N)cc1)c1cccc(C(=O)Nc2c(I)cc(C(F)(C(F)(F)F)C(F)(F)F)cc2C(F)(F)F)c1F [7-1751]
≥ 70%: pest or weed control at 1 ppm [1] | pest or weed control at 100 ppm [5, 7] | pest or weed control at 1 ppm [2] | pest or weed control at 1 ppm [3]

CN(C(=O)c1cccc(C#N)c1)c1cccc(C(=O)Nc2c(I)cc(C(F)(C(F)(F)F)C(F)(F)C(F)(F)F)cc2C(F)(F)F)c1F (stereo not shown) [7-1828]
≥ 70%: pest or weed control at 100 ppm [5, 7] | pest or weed control at 1 ppm [2] | pest or weed control at 1 ppm [3] | pest or weed control at 100 ppm [6]

CN(C(=O)c1ccccc1)c1cccc(C(=O)N(C)c2c(Br)cc(C(F)(C(F)(F)F)C(F)(F)F)cc2C(F)(F)F)c1F [9-2164, N-(2-bromo-4-(perfluoropropan-2-yl)-6-(trifluoromethyl)phenyl)-2-fluoro-N-methyl-3-(N-methylbenzamide)benzamide]
≥ 70%: pest or weed control at 100 ppm [5, 7] | pest or weed control at 1 ppm [2] | pest or weed control at 1 ppm [3] | pest or weed control at 100 ppm [6]

CN(C(=O)c1cccc(F)c1)c1cccc(C(=O)N(C)c2c(I)cc(C(F)(C(F)(F)F)C(F)(F)F)cc2C(F)(F)F)c1F [9-2322]
≥ 70%: pest or weed control at 100 ppm [5, 7] | pest or weed control at 1 ppm [2] | pest or weed control at 1 ppm [3] | pest or weed control at 100 ppm [6]

O=C(Nc1cccc(C(=O)Nc2c(Br)cc(C(F)(C(F)(F)F)C(F)(F)F)cc2C(F)(F)F)c1F)OCC(Cl)(Cl)Cl [11-777]
≥ 70%: pest or weed control at 1 ppm [2] | pest or weed control at 1 ppm [3] | pest or weed control at 100 ppm [6]

O=C(Nc1cccc(C(=O)Nc2c(I)cc(C(F)(C(F)(F)F)C(F)(F)F)cc2C(F)(F)F)c1F)OCC(Cl)(Cl)Cl [11-835]
≥ 70%: pest or weed control at 1 ppm [2] | pest or weed control at 1 ppm [3] | pest or weed control at 100 ppm [6]

CN(C(=O)OCC(Cl)(Cl)Cl)c1cccc(C(=O)Nc2c(Br)cc(C(F)(C(F)(F)F)C(F)(F)F)cc2C(F)(F)F)c1F [12-777]
≥ 70%: pest or weed control at 1 ppm [2] | pest or weed control at 1 ppm [3] | pest or weed control at 100 ppm [6]

CN(C(=O)OCC(Cl)(Cl)Cl)c1cccc(C(=O)Nc2c(I)cc(C(F)(C(F)(F)F)C(F)(F)F)cc2C(F)(F)F)c1F [12-835]
≥ 70%: pest or weed control at 100 ppm [5] | pest or weed control at 1 ppm [2] | pest or weed control at 1 ppm [3] | pest or weed control at 100 ppm [6]

CN(C(=O)OCC(Cl)(Cl)Cl)c1cccc(C(=O)Nc2c(I)cc(C(F)(C(F)(F)F)C(F)(F)C(F)(F)F)cc2C(F)(F)F)c1F (stereo not shown) [12-864, 2,2,2-trichloroethyl 2-fluoro-3-(2-iodo-4-(perfluorobutan-2-yl)-6-(trifluoromethyl)phenylcarbamoyl)phenyl(methyl)carbamate]
≥ 70%: pest or weed control at 100 ppm [5] | pest or weed control at 1 ppm [2] | pest or weed control at 1 ppm [3] | pest or weed control at 100 ppm [6]

CN(C(=O)c1ccccc1)c1cccc(C(=O)Nc2c(Br)cc(C(F)(C(F)(F)F)C(F)(F)F)cc2C(F)(F)F)n1 [17-1103, N-(2-bromo-4-(perfluoropropan-2-yl)-6-(trifluoromethyl)phenyl)-6-(N-methylbenzamide)picolinamide]
≥ 70%: pest or weed control at 10 ppm [2] | pest or weed control at 10 ppm ([3]; concentration 10 ppm) | pest or weed control at 100 ppm [6]

CN(C(=O)c1ccccc1)c1nc(C(=O)Nc2c(Br)cc(C(F)(C(F)(F)F)C(F)(F)F)cc2C(F)(F)F)cs1 [27-627]
≥ 70%: pest or weed control at 10 ppm [2] | pest or weed control at 1 ppm [3] | pest or weed control at 100 ppm [6]
